What was measured:
[1] = tested on: CD95-treated Jurkat cells; assay: In-vitro screening: uptake of tritiated compounds into apoptotic Jurkat cells; assay type: cell-based; details: tritiated compound, 30 minutes, 37° C., beta-counter; control untreated uptake set as 1
Description: Uptake was measured using beta counter. zVAD treated cells reversed the phenotype decreasing uptake to control values (set as 1) in all tested candidates. Shown are means±SD of three independent experiments performed in triplicates.
For in-vitro screening of the compounds of the invention, apoptosis-induction model in hematopoietic derived cancer cell line, Jurkat was used.
Jurkat cells were cultured in RPMI supplemented with 10% fetal bovine serum, 4 mM L-glutamine, 100 U/ml penicillin and 100 n/ml streptomycin in a humidified incubator at 37° C., 5% CO2. Cells were counted and re-suspended in hepes buffer saline (HBS).
Apoptosis induction: 10^7 cells/ml were incubated for two hours with 0.1 n/ml of anti-Fas (CD95) antibody. For apoptosis inhibition (specific control), induced and control cells were incubated with 50 μM of the specific caspase inhibitor, Zvad. 2 μl Ci of the tritiated compounds or ML-10 as reference, were added to the cells for 30 minutes. All incubations were performed at 37° C. After incubation with the tritiated compounds, cells were washed twice in HBS, transferred to scintillation liquid and radioactivity was monitored using beta-counter. The percentage of uptake was calculated using the standard DPM readings. […]

[2] = Pharmacokinetic evaluation of tritiated candidates in naive and chemotherapy treated mice; details: mouse, in vivo
Source text: (§1) In order to determine the pharmacokinetics properties of APO-698, its unlabeled analog, APO-697 was used. Table-1 summarizes the pharmacokinetic study performed in CD1 mice for the two unlabeled (cold) analogs, ML-10 and APO-697.

[3] = tested on: human colorectal cancer cells HCT-116 xenografts; assay: In-vivo screening: tumor/blood uptake ratio in HCT-116 xenografts; parameters: species or system Athymic nude mice; details: intravenous tritiated compound, HCT-116 xenograft, FIG. 2 (one and a half hours before samples collection)
Description: Athymic nude mice were inoculated with HCT-116 human colorectal cancer cells. Mice were subjected to intravenous injection of tritiated ML-10 and APO-650 one and a half hours before samples collection. Blood samples were taken before sacrificing the animals. Blood and tumor samples radioactivity was measured in a beta-counter.
In order to assess the in-vivo accumulation of ML-10 and compounds of the invention, the uptake into human colorectal cancer cells HCT-116 xenografts was monitored. Athymic nude mice were subcutaneously inoculated with […] HCT-116 cells. After the formation of tumors, ML-10 and APO-650 were intravenously administrated to the mice, 30 and 90 minutes before scarification (n≧8). Peripheral blood samples were collected prior to animals' scarification. Tumors were dissected, homogenized and all samples were calibrated in scintillation fluid before radioactivity was measured in a beta-counter. To inspect signal to noise ratio, the ratio of uptake into the tumor versus blood was calculated.

[4] = Pharmacokinetic study of unlabeled (cold) analogs in CD1 mice; assay type: in vivo; details: for AUC(0-inf) / half-life / clearance / Vd: mouse, in vivo; for clearance: read-out: Total clearance (converted); for Vd: read-out: Vss; for Total clearance, percentage in brackets / Vss, percentage in brackets: reference of the percentage not explained
Source text: as §1

[5] = Blood partitioning (red blood cells/plasma); assay type: in vitro ADME; details: mouse blood
Source text: as §1

| half-life ([2]; t1/2) [min] | SMILES | fold increase uptake of CD95-treated cells (uptake of the tracer into the apoptotic cells) [1] | AUC(0-inf) ([4]; unlabeled compound) [ng·h/mL] | half-life ([4]; unlabeled compound) [min] | clearance ([4]; unlabeled compound) [mL/min/kg] | Vd ([4]; unlabeled compound) [L/kg] | Total clearance, percentage in brackets [4] | Vss, percentage in brackets [4] | KRBC/PL [5] | further results |
| --- | --- | --- | --- | --- | --- | --- | --- | --- | --- | --- |
| – | CC(CCCCC[18F])(c1nnn[nH]1)c1nnn[nH]1 [APO-600, 5,5′(7-^18fluoroheptane-2,2-diyl)bis(1H-tetrazole)] | high uptake | – | – | – | – | – | – | – | – |
| 10 | O=C(O)c1ccc(CCC[18F])cc1C(=O)O [APO-630, 4-(3-^18fluoropropyl)phthalic acid] | high uptake | – | – | – | – | – | – | – | – |
| 8 | CN(CCCCC(C)(C(=O)O)C(=O)O)c1ncc([N+](=O)[O-])s1 [APO-650, 2-methyl-2-{4-[(5-nitro-1,3-thiazol-2-yl)tritritiummethylamino]butyl}propanedioic acid] | – | – | – | – | – | – | – | – | tumor/blood ratio [3]: six-fold |
| – | COc1cc2c(c(OC)c1OC)-c1ccc(OC)c(=O)cc1[C@@H](NC(=O)CCCCCC(C)(C(=O)O)C(=O)O)CC2 [APO-697, 2-methyl-2-(5-{[(10S)-3,4,5,14-tetramethoxy-13-oxotricyclo[9.5.0.0{2,7}]hexadeca-1(16),2,4,6,11,14-hexaen-10-yl]carbamoyl}pentyl)propanedioic acid] | – | 5.16 | 7.92 | 64.7 | 0.435 | (71.9%) | (60.0%) | 0.07 | Total clearance ([4]; unlabeled compound): higher; Vss ([4]; unlabeled compound): higher volume of distribution; t1/2 ([4]; unlabeled compound): shorter t1/2 |
| – | CC(CCCCCF)(C(=O)O)C(=O)O [ML-10, (5-fluoropentyl)(methyl)propanedioic acid, reference compound] | – | 32.6 | 11.2 | 10.2 | 0.152 | (11.4%) | (21.0%) | 0.01 | half-life ([2]; Naive mice, tritiated, read-out: t1/2): 10 min |

— US20150064111A1, “NOVEL TARGETING AGENTS FOR DIAGNOSTIC AND THERAPEUTIC INDICATIONS” (APOSENSE LTD., priority 2012, published 2015)
